Data set [1] in a line: Antiproliferative activity against […] assessed as reduction in cell growth incubated for 48 hrs by MTT assay. Type of data set: functional, cell-based. To be noted: RN 22, 48 h. A general note: Tetrazolium dyes change colour on reduction, which living cells bring about.
Data set [2] addresses T1, Histone-lysine N-methyltransferase NSD2 (Homo sapiens, UniProt O96028).
T1 sequence (O96028 whole entry): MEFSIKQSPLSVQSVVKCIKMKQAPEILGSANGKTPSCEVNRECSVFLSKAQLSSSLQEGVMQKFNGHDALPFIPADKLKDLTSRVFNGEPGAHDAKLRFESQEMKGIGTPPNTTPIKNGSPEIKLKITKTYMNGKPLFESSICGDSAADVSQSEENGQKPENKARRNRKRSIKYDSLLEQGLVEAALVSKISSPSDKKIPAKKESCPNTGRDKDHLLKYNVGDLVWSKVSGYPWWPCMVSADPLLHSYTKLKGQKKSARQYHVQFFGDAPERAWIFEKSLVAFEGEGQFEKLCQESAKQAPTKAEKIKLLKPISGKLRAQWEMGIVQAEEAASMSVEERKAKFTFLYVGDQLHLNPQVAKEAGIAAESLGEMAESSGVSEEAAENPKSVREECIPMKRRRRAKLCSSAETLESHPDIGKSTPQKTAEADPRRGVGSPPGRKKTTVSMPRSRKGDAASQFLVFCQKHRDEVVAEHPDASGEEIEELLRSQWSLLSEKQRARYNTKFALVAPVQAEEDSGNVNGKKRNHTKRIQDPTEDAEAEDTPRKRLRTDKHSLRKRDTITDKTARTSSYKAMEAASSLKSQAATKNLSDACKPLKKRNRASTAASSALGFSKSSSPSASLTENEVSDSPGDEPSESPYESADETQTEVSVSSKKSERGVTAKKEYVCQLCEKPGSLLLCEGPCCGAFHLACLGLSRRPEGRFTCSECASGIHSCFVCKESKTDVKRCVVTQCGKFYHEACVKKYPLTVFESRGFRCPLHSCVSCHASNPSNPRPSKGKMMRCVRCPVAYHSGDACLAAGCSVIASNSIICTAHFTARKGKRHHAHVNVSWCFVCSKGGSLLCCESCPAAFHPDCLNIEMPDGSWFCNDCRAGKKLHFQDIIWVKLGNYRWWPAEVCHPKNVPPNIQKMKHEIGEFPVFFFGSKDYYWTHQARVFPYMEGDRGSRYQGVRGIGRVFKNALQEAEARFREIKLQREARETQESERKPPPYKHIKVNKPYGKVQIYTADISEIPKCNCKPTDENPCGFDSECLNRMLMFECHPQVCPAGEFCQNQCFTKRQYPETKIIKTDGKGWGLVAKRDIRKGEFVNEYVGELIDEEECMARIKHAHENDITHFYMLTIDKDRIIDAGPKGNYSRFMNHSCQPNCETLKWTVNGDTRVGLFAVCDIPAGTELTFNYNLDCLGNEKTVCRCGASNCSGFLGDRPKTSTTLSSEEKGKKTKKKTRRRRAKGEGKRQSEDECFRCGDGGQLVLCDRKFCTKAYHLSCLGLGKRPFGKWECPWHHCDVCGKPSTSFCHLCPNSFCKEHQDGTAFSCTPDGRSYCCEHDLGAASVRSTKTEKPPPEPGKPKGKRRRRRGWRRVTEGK
Put plainly: Inhibition of NSD2 SET domain (unknown origin) extracted from Escherichia coli BL21.

Data set [3] has as its target T1, Histone-lysine N-methyltransferase NSD2. Put plainly: Inhibition of MMSET (953 to 1240 residues) (unknown origin) by Alpha Screen assay. (In general: Bead proximity is the source of the signal in Alpha formats.)
The next data set deals with KOPN-8. In words: Growth inhibition of human KOPN-8 cells. Type of data set: functional.
Another data set concerns MV4-11. Put plainly: Growth inhibition of human MV4-11 cells after 7 days by WST-8 assay. Type of data set: functional. Particulars: MV4-11, 168 h, time 7 day.
Another data set deals with MOLM-13. In words: Growth inhibition of human MOLM-13 cells. It is filed as functional.
The target of data set [4] is Protein cereblon/Histone-lysine N-methyltransferase NSD2 (Homo sapiens, UniProt O96028+Q96SW2). In words: PROTAC activity at CRBN/NSD2 in human VCaP cells assessed as induction of NSD2 degradation at 2 uM incubated for 24 hrs by immunoblot analysis. Type of data set: cell-based.
The target in data set [5] is von Hippel-Lindau disease tumor suppressor/Histone-lysine N-methyltransferase NSD3 (Homo sapiens, UniProt Q9BZ95+P40337). In words: PROTAC activity at VHL/NSD3 […] domain in human MOLM-13 cells assessed as […] measured after 48 hrs by immunoblotting analysis. Type of data set: cell-based. (Immunoblotting shows a protein as a band on a membrane.)

The next data set relates to EOL1. Put plainly: Antiproliferative activity against human EOL1 cells assessed as cell growth inhibition. It is filed as functional, cell-based.
In data set [6] the target is T1, Histone-lysine N-methyltransferase NSD2. Put plainly: Binding affinity to NSD2 (unknown origin) assessed as dissociation constant by SPR analysis.
The nature of data set [7]: Oral bioavailability in CD-1 mouse by LC-MS/MS analysis. Type of data set: ADME, organism-based. To be noted: in vivo.
The nature of data set [8]: Oral bioavailability in Sprague-Dawley rat by LC-MS/MS analysis. To be noted: in vivo. It is filed as ADME, organism-based.

The results in this text go back to ChEMBL document CHEMBL5579817, “Recent advances in targeting histone H3 lysine 36 methyltransferases for cancer therapy” (Eur J Med Chem, 2024).

Chain of Protein cereblon/Histone-lysine N-methyltransferase NSD2 (Q96SW2 whole entry, one chain of several): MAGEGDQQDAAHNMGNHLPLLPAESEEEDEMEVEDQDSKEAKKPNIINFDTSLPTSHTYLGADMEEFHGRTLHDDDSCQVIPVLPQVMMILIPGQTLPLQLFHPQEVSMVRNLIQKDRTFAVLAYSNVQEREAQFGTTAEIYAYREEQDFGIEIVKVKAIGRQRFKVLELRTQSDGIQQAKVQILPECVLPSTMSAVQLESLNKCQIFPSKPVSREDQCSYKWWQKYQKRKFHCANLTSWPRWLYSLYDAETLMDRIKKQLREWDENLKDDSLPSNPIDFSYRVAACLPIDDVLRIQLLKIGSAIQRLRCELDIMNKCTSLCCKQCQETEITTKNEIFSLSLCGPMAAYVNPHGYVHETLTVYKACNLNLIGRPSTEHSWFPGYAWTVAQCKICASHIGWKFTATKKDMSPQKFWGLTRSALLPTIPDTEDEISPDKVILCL
Chain of von Hippel-Lindau disease tumor suppressor/Histone-lysine N-methyltransferase NSD3 (Q9BZ95 whole entry): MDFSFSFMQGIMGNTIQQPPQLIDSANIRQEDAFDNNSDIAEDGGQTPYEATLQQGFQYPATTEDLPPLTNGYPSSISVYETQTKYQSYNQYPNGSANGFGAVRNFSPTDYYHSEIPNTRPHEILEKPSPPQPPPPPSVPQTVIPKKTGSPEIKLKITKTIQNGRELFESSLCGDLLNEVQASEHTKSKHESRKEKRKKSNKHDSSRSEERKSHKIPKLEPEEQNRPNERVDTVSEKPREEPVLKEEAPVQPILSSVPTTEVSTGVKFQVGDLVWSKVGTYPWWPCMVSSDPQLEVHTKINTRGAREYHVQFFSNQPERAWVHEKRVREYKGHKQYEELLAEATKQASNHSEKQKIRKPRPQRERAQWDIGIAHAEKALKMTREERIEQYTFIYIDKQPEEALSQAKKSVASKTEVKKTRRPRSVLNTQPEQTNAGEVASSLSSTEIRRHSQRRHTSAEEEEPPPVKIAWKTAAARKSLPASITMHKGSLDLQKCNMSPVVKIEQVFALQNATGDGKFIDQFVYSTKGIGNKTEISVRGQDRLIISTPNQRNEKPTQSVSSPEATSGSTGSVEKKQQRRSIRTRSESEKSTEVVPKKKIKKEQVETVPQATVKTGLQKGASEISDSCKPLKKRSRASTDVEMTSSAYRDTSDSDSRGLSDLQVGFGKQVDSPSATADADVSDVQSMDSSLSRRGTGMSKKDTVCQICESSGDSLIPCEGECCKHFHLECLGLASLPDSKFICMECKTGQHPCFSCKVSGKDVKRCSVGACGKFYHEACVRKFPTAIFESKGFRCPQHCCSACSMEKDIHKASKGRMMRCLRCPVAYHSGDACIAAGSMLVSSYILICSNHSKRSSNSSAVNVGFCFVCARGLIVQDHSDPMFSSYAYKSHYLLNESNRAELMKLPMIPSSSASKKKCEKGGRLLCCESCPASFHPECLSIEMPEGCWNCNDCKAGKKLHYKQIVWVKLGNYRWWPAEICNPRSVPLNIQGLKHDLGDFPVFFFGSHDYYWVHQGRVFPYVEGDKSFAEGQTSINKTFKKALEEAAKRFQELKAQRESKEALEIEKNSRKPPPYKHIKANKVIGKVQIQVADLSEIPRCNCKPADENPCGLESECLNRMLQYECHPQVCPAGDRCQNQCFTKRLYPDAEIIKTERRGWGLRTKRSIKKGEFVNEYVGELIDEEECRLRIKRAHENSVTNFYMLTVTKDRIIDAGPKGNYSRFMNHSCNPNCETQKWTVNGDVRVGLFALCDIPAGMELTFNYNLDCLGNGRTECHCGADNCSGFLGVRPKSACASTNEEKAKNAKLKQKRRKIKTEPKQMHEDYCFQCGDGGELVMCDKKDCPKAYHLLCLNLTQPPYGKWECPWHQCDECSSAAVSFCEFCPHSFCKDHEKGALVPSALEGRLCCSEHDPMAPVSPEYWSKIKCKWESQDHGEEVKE
Chain of von Hippel-Lindau disease tumor suppressor/Histone-lysine N-methyltransferase NSD3 (P40337 whole entry): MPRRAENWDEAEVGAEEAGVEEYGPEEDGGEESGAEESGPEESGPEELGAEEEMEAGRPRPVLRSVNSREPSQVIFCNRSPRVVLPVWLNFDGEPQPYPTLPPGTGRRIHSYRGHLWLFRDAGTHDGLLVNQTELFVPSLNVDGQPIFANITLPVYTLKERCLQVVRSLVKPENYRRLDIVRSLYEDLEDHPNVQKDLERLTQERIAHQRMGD

The term IC50 denotes the midpoint of a concentration-inhibition curve. As to `Cc1cc(CN)cc(C)c1-c1ncn(C)c1-c1ccnc2cc(F)ccc12`, the concentration for half-maximal inhibition (IC50) in [1] was determined as 13000 nM.
In turn, `O=C1O[C@@H](C(=O)N2CCN(Cc3nc4sc5c(c4c(=O)[nH]3)CCCC5)CC2)Cc2ccccc21` had a half-inhibitory concentration (IC50) in data set [2] of 132 nM.
In [3], `CC(=O)N(C)C1CCN(c2cc(F)cc(NC(=O)c3cc4c(F)ccc(C)c4[nH]3)c2)C1` (centres undefined) returned a half-inhibitory concentration (IC50) of 7 nM.
For `Cc1ccc(F)c2cc(C(=O)Nc3cccc(N4CCC(N(C)C)CC4)c3)[nH]c12`, in data set [3], half-maximal inhibition (IC50) required 10 nM.
The term GI50 denotes the concentration that inhibits growth by half. Consider `NC(=S)c1cccc(-c2cn(C3CCN(S(=O)(=O)C(F)(F)F)CC3)c3cc(CNC(=O)C4CNC4)ccc23)c1`, for which the GI50 with KOPN-8, in the data set with MV4-11 and in the data set with MOLM-13 was 5000 nM in each case.
In data set [3], `Cc1cccnc1C(NC(=O)c1cc2c(F)ccc(C)c2[nH]1)C1CC1` (centres undefined) had a 50% inhibitory concentration (IC50) of 600 nM.
On to `CN1CC(C(=O)NCc2ccc3c(-c4cccc(C(N)=S)c4)cn(C4CCN(S(=O)(=O)C(F)(F)F)CC4)c3c2)C1`, for which the concentration for 50% growth inhibition (GI50) in the data set with KOPN-8, with MV4-11 and with MOLM-13 was 1800 nM each time.
In [3], `Cc1cccnc1C(NC(=O)c1cc2cccc(C)c2[nH]1)C1CC1` (centres undefined) displayed an IC50 of 3080 nM.
As a reminder, the DC50 is the concentration at which degradation of the target reaches its halfway point. On to `O=C(CNc1cccc2c1C(=O)N(C1CCC(=O)NC1=O)C2=O)NCCCOc1ccc(NC(=O)c2ccc(CN(C(=O)c3ccc4c(c3)OCC(=O)N4)C3CC3)cc2)nc1` (centres undefined), for which the half-maximal degradation concentration (DC50) in data set [4] came out at 5200 nM.
For the compound `Cc1cc(CNCCCC(=O)NCCCCCCCCC(=O)N[C@H](C(=O)N2C[C@H](O)C[C@H]2C(=O)N[C@@H](C)c2ccc(-c3scnc3C)cc2)C(C)(C)C)cc(C)c1-c1ncn(C)c1-c1ccnc2cc(F)ccc12`, the DC50 in data set [5] stood at 4900 nM. Moreover, in the data set with EOL1, the half-inhibitory concentration (IC50) was determined as 2300 nM.
The Kd is a measure of binding affinity in units of concentration. As for `NCCCCCCNC(=O)c1ccc(NC(=O)c2ccc(CN(C(=O)c3ccc4c(c3)OCC(=O)N4)C3CC3)cc2)cc1`, the DC50 in data set [4] came to 350 nM. Besides, in data set [6], the Kd was determined as 24 nM.
With `Cc1cccc2cc(C(=O)NC3CCC(NC(=O)CCN)CC3)[nH]c12` (centres undefined), the IC50 in data set [3] was […].
In [3], `Cc1cccc2cc(C(=O)Nc3ccccc3)[nH]c12` registered an IC50 of 4240 nM.
`Cc1cccc2cc(C(=O)NC3CCC(N)CC3)[nH]c12` (centres undefined): half-maximal inhibition in data set [3] (IC50) required 166000 nM.
Regarding `CCC(C)N[C@@H](CC[C@H](N)C(=O)O)C[C@H]1O[C@@H](n2cnc3c(N)ncnc32)[C@H](O)[C@@H]1O` (some centres undefined), the 50% inhibitory concentration (IC50) in data set [3] stood at 1800 nM.
For orientation: bioavailability means dose-corrected exposure relative to a reference, in per cent. Take `CC(=O)N1CCN([C@H]2CCC[C@@H](NC(=O)c3cc4c(F)ccc(C)c4[nH]3)C2)CC1` [EZM-0414]: the bioavailability was over 100% in [7] and 97% in data set [8]. Moreover, the IC50 in data set [3] worked out at 18 nM.
